The test system of this assay is Gram-negative strains. Nature of the assay: MIC determination, Gram-negative strains. The format is cell-based. To be noted: range over Gram-negative strains. The protocol: The examinations were carried out by using the bacteria strains listed hereinbelow: Gram-negative strains E. coli 35034 Klebsiella 52001 Klebsiella ATCC 1200 S. hartford 10063 P. mirabilis 60012 P. morganii 63002 P. rettgeri 65002 P. inconstans 67001 P. aeruginosa ATCC 27853

This note sets out measurements from patent publication US4626533A, “7-(2-thienylacetamido)-3-acylaminomethyl-cephalosporins” (Biogal Gyogyszergyar, priority 1983, dated 1986).

Structures are written as SMILES.

By MIC is commonly meant the least concentration at which growth counts as inhibited. High values mean a less susceptible organism, low ones a more susceptible organism. `Cn1nnnc1SCC(=O)NC1C(=O)N2C(C(=O)O)=C(CNC(=O)c3c(Cl)cccc3Cl)CSC12` (stereo not drawn) [Example 14, 7-(1-methyl-1H-tetrazole-5-ylthio)acetamido-3-(2,6-dichlorobenzamino)methylceph-3-em-4-carboxylic acid] returned an MIC of over 100 µg/mL.
Regarding `O=C(CSc1nnc(-c2ccccc2)o1)NC1C(=O)N2C(C(=O)O)=C(CNC(=O)c3c(Cl)cccc3Cl)CS[C@H]12` (stereo partly drawn) [Example 15, 7-(2-phenyl-1,3,4-oxadiazole-5-ylthio)acetamido-3-(2,6-dichlorobenzoylamino)methylceph-3-em-4-carboxylic acid], the MIC is over 100 µg/mL.
Take `CC(=O)NCC1=C(C(=O)O)N2C(=O)C(NC(=O)CSc3nnc(-c4ccccc4)o3)[C@H]2SC1` (stereo partly drawn) [Example 8, 7-(2-phenyl-1,3,4-oxadiazole-5-ylthio)acetylamino-3-acetylaminomethylceph-3-em-4-carboxylic acid]: the MIC was over 100 µg/mL.
